Source: patent publication US12433844B2, “Preparation method and application of tumor microparticles encapsulating metabolic inhibitors” (Union Hospital, Tongji Medical College, Huazhong University …, priority 2022, dated 2025)

Test system: lung metastasis
Experiment: Lung metastatic nodules count (H&E staining)
Format: in vivo, mice
Conditions: compared to the PBS intervention group
Description: In order to explore the anti-tumor effect of TMP-F combined with chemotherapy, two doses of cisplatin chemotherapy (Cis) are added during the intervention process. […] In addition, the lungs of mice are extracted, hematoxylin-eosin (H&E) staining is performed on the lungs of mice, and the number of lung metastatic nodules under the light microscope are observed and counted.

N.N.[Cl][Pt][Cl] [chemotherapy alone, cisplatin]
lung metastasis (number of lung metastatic nodules): inhibits the lung metastasis
